From PubChem BioAssay (NCI)
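Values below derive from 48-hour exposures of cells grown in 96-well plates, with endpoints linearly interpolated between the two concentrations bracketing the appropriate inhibition level. The concentration for 50% growth inhibition is given as GI50. At the TGI there is no net growth.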

Legend:
Test in all cases: inhibition of tumour cell growth, NCI panel, 48 h
[1] = test system: A549 NSCLC
[2] = test system: MALME-3M melanoma
[3] = test system: CCRF-CEM leukemia
[4] = test system: NCI-H460 lung
[5] = test system: NCI-H522 lung
[6] = test system: HOP-62 NSCLC
[7] = test system: M14 melanoma
[8] = test system: MCF7 breast
[9] = test system: MDA-N
[10] = test system: HS 578T breast

Row | SMILES | TGI [1] [µM] | TGI [2] [µM] | TGI [3] [µM] | TGI [4] [µM] | TGI [5] [µM] | TGI [6] [µM] | TGI [7] [µM] | TGI [8] [µM] | TGI [9] [µM] | TGI [10] [µM] | GI50 [1] [µM] | GI50 [2] [µM] | GI50 [8] [µM] | GI50 [3] [µM] | GI50 [4] [µM] | GI50 [5] [µM] | GI50 [6] [µM] | GI50 [10] [µM] | GI50 [7] [µM]
1 | COC(OC)c1cccc2c1C1(O)CCC3(CC21)OCCCCO3 (centres undefined) | > 100 | > 100 | > 100 | > 100 | > 100 | > 100 | > 100 |  |  |  |  |  |  |  |  |  |  |  | 
2 | c1ccc(C2SCC3=Nc4ccccc4CN32)cc1 (centres undefined) | > 100 |  | > 100 | > 100 |  | > 100 | > 100 | > 100 | > 100 | > 100 |  |  |  |  |  |  |  |  | 
3 | COP(C)(=O)/C(Cc1ccccc1)=N\O (centres undefined) | > 100 |  | > 100 | > 100 |  | > 100 | > 100 | > 100 | > 100 | > 100 |  |  |  |  |  |  |  |  | 
4 | O=C1OCC(C#Cc2ccccc2)=C1Cl | > 100 | 36.5 | 18.1 | > 100 | 14.7 | 1.7 | 16.4 | > 100 |  | 18 | 5.02 | 13.4 | 1.71 | 0.222 | 7.59 | 3.08 | 0.388 | 2.46 | 3.88
5 | CCOc1ccc2c(c1)/C(=C(\C(Cl)=C(Cl)Cl)[N+](=O)[O-])N2 | > 100 | > 100 | > 100 | > 100 |  | > 100 | > 100 | > 100 | > 100 | > 100 |  |  |  |  |  |  |  |  | 
6 | CC1(c2ccc(Cl)cc2)CC(c2ccc(Cl)cc2)=C(C#N)C(=C(C#N)C#N)N1 (centres undefined) | 53.3 | 32.3 | > 100 | 73.3 |  | 25.1 | 36.6 | 49.8 | 38.5 | 50.3 |  |  |  |  |  |  |  |  | 
7 | O=C(N/N=C1\CCc2ccccc2C1)N/N=C1\CCc2ccccc2C1 | > 10 | > 10 | > 10 | > 10 | > 10 | > 10 | > 10 | > 10 | > 10 |  |  |  |  |  |  |  |  |  | 
8 | CCOc1ccccc1/C=C1\NC(=O)N(/C=C2\C(=O)Oc3ccccc3C2=O)C1=O | > 100 |  | 59.1 | > 100 | > 100 | > 100 | > 100 | > 100 | > 100 | > 100 |  |  |  |  |  |  |  |  | 
9 | c1ccc(N=C2SC(=NNc3ccccc3)SC2=Nc2ccccc2)cc1 | > 100 | > 100 | > 100 | > 100 | > 100 | > 100 |  |  | > 100 | > 100 |  |  |  |  |  |  |  |  | 
10 | COc1ccc(Cc2nc3cc(C(F)(F)F)ccc3n2CCCN(C)C)cc1 | 38.9 | 29.1 | 44 | 46.7 | 31.8 | > 100 | 28.7 | 32.3 |  | 43.1 |  |  |  |  |  |  |  |  | 
11 | NC(=O)CCC(NCc1c2ccccc2[n+]([O-])c2ccccc12)C(=O)O (centres undefined) | > 100 | > 100 | > 100 | > 100 | > 100 | > 100 | > 100 |  |  |  |  |  |  |  |  |  |  |  | 
12 | C/C(=N\Nc1ccc([N+](=O)[O-])cc1[N+](=O)[O-])c1ccc2ccccc2n1 | > 100 | > 100 |  | > 100 | 55.7 |  | > 100 | > 100 | > 100 | > 100 |  |  |  |  |  |  |  |  | 
13 | CCP(=O)(CC)C(Cl)(Cl)C(O)C(C)(C)C (centres undefined) | > 100 |  | > 100 | > 100 | > 100 | > 100 | > 100 | > 100 | > 100 | > 100 |  |  |  |  |  |  |  |  | 
14 | Cc1ccc(C(=O)C(C)N)cc1 (centres undefined) | > 100 | > 100 | > 100 | > 100 | > 100 | > 100 | > 100 |  |  |  |  |  |  |  |  |  |  |  | 
15 | CC(C)(C)c1ccc(CN2CCN(C(c3ccccc3)c3ccc(Cl)cc3)CC2)cc1 (centres undefined) | > 100 | > 100 |  | > 100 | 85.1 | > 100 | > 100 | > 100 | > 100 | > 100 |  |  |  |  |  |  |  |  | 
16 | CC(=O)OC1CC2CCC1(C)C2(C)C (centres undefined) |  | > 100 | > 100 | > 100 | > 100 | > 100 | > 100 | > 100 | > 100 | > 100 |  |  |  |  |  |  |  |  | 
17 | CCC1CC2CN3CCc4c([nH]c5c(-c6c(OC)ccc7c8c([nH]c67)[C@]6(C(=O)OC)CC7CC(CC)C6N(CC8)C7)c(O)ccc45)[C@](C(=O)OC)(C2)C13 (some centres undefined) | 36.9 |  | > 100 | 29.2 | 31.6 | 28.5 | 78.2 | 22.9 | 24.6 |  |  |  |  |  |  |  |  |  | 
18 | CC(=O)O[C@H]1C[C@]2(C)C(CCC3O[C@@]32C)[C@@]2(CC(c3ccoc3)OC2O)[C@@H]1C (some centres undefined) | > 100 |  | 88.3 | > 100 | > 100 |  | > 100 | > 100 | > 100 | > 100 |  |  |  |  |  |  |  |  | 
19 | C1COC(NC(C2CC2)C2CC2)=N1 | > 100 | > 100 | > 100 | > 100 | > 100 |  | > 100 | > 100 | > 100 | > 100 |  |  |  |  |  |  |  |  | 
20 | O=P(O)(O)C(CSc1ccccc1)P(=O)(O)O | > 100 | > 100 | > 100 | > 100 | > 100 | > 100 |  | > 100 |  |  |  |  |  |  |  |  |  |  | 
21 | Cc1cccc(Nc2cn(COCc3ccccc3)c(=O)[nH]c2=O)c1 | > 100 |  | > 100 | > 100 | 97.2 | 86.3 | > 100 | > 100 | > 100 | > 100 |  |  |  |  |  |  |  |  | 
22 | CC(=O)[O-].CC(=O)[O-].O=C(N/N=C/c1cc(Cl)cc(Cl)c1[OH2+])c1ccncc1.[Co+2] | > 100 | > 100 | > 100 | > 100 | > 100 | > 100 | > 100 |  |  |  |  |  |  |  |  |  |  |  | 
23 | COC(=O)CC1(CNC(=O)OCc2ccccc2)OCCO1 | > 100 | > 100 | > 100 | > 100 | > 100 |  | > 100 | > 100 | > 100 |  |  |  |  |  |  |  |  |  | 
